The structures appear in SMILES notation. ≈ marks a conversion by molar mass, not a printed value. Square brackets hold non-standard residues; d marks the D form. Peptide text beside a SMILES is read from it.

Data on one compound can be found in patent publication US12370235B2, “Synthetic, non-natural antimicrobial peptides inspired by Staphylococcus auricularis delta toxin” (University of Saskatchewan, priority 2021, dated 2025).

Series [1] relates to S. aureus ATCC 29213. The experiment in a line: MIC, broth dilution. The format is cell-based, Staphylococcus aureus. To be noted: Table 5; STIP3 variants, highest concentration 100 μg/mL. A digest of the protocol:
(§1)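 MIC defined as the lowest peptide level giving no growth after overnight standing incubation at 37° C. Bacteria at OD 6×10^−4 in cation-adjusted MH broth met 2-fold serial peptide dilutions; peptide purity 95%.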

Series [2] concerns S. aureus ATCC 33592 (MRSA SCCmec type III). In words: MIC, broth dilution. The format is cell-based, Staphylococcus aureus. The note with it: Table 5; STIP3 variants, highest concentration 100 μg/mL. A digest of the protocol: as §1
A general note: Dilution methods test growth across graded concentrations, often in twofold steps.

Series [3] concerns S. aureus ATCC BAA-1683 (MRSA SCCmec type IV). The experiment in a line: MIC, broth dilution. The note with it: Table 5; STIP3 variants, highest concentration 100 μg/mL. The format is cell-based, Staphylococcus aureus. The procedure, abridged: as §1
In series [4] the test system is S. aureus ATCC BAA-2094 (MRSA SCCmec type V). In words: MIC, broth dilution. To be noted: Table 5; STIP3 variants, highest concentration 100 μg/mL. The format is cell-based, Staphylococcus aureus. A digest of the protocol: as §1
The subject of series [5] is S. aureus ATCC BAA-2313 (MRSA SCCmec type XI). The experiment in a line: MIC, broth dilution. In kind it is cell-based, Staphylococcus aureus. The note with it: Table 5; STIP3 variants, highest concentration 100 μg/mL. The procedure, abridged: as §1
In series [6] the test system is S. aureus ATCC BAA-41 (MRSA SCCmec type II). In words: MIC, broth dilution. In kind it is cell-based, Staphylococcus aureus. To be noted: Table 5; STIP3 variants, highest concentration 100 μg/mL. A digest of the protocol: as §1
Series [7] has as its system S. aureus ATCC BAA-42 (MRSA SCCmec type VI). In words: MIC, broth dilution. The note with it: Table 5; STIP3 variants, highest concentration 100 μg/mL. The format is cell-based, Staphylococcus aureus. The procedure, abridged: as §1
The test system of series [8] is S. aureus ATCC BAA-44 (MRSA SCCmec type I). In words: MIC, broth dilution. The format is cell-based, Staphylococcus aureus. To be noted: Table 5; STIP3 variants, highest concentration 100 μg/mL. A digest of the protocol:
as §1

Series [9] deals with S. aureus / MRSA (ATCC MP-2 panel). The format is cell-based, Staphylococcus aureus. To be noted: in words. As to the method: In order to begin to characterize STIP3-1 and potential sites amenable to modification, an alanine scanning experiment was performed. A total of 16 peptides with single alanine substitutions were assessed to inform on the importance of individual residues to antimicrobial activity. […] Next a series of thirty STIP3-1 variants were designed, guided by the aforementioned alanine scan and a previous report that the central α-helical core of the S. aureus δ-toxin could be converted into AMP through the inclusion of additional lysine residues^39. The collection included ten members with single substitutions relative to STIP3-1 and others that incorporated a number of changes that were designed to increase overall and local cationic charge as well as hydrophobic character (Table 5). Each of the STIPs was screened, including STIP3-1 to STIP-31, for antibiotic activity against a methicillin-sensitive S. aureus test organism and a panel of 7 MRSA strains defined by distinct SCCmec genotypes (FIG. 2; ATCC MP-2).
Determination of minimum inhibitory concentrations. The MICs were measured for bioactive peptides identified from the initial screen. For bacterial studies, cation-adjusted Mueller Hinton (MH) broth was used as the growth medium whereas YPD was used for C. albicans. Bacterial cultures were diluted to a OD value of 6×10^−4 in MH broth and a 180 μl volume was mixed with 20 μl of peptide arrayed as 2-fold dilution series in a 96-well plate. For the positive control, 20 μl of sterile water was used. Plates were incubated as standing cultures overnight at 37° C. The lowest peptide concentration that resulted no observed microbial growth after an overnight treatment was defined as the MIC.

Series [10] relates to C. albicans MYA-2876. The experiment in a line: MIC, YPD broth. In kind it is cell-based, Candida albicans. The note with it: Table 8. A digest of the protocol: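 Yeast cells were diluted in YPD broth, and 180 μl aliquots were mixed with 20 μl of peptide from 2-fold serial dilutions in flat-bottom 96-well microtitre plates. Wells receiving 20 μl sterile water served as controls. After standing incubation overnight at 37° C, the MIC was taken as the lowest peptide concentration with no visible microbial growth.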

Series [11] concerns C. albicans Y537. In words: MIC, YPD broth. In kind it is cell-based, Candida albicans. To be noted: Table 8.
The nature of series [12]: Circular dichroism spectroscopy. In kind it is physicochemical. To be noted: CD, 50% (v/v) TFE. A digest of the protocol: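 Secondary structure of peptides dissolved in water at 0.3–0.5 mg/mL was assessed by CD. Spectra were recorded from 180 to 260 nm at room temperature in a 0.1 cm quartz cuvette; water and 50% (v/v) TFE conditions were compared.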
A general note: CD spectra are sensitive to the conformation of chiral molecules.

The subject of series [13] is MRSA ATCC 33592. In words: SYTOX Green membrane integrity assay. In kind it is cell-based, Staphylococcus aureus. The note with it: one fourth to four-fold the MIC. As to the method:
(§2) Membrane disruption and depolarization are commonly reported mechanisms of AMP action. Two indirect assays that rely on fluorescent dyes were employed to assess the interaction of STIP3-29 and D-STIP3-29 with bacterial membranes. First, changes to SYTOX fluorescence was measured when MRSA ATCC 33592 was treated with increasing peptide concentrations ranging from one fourth to four-fold the MIC. […] Next, DiSC3(5), a cationic dye that binds to polarized membranes was used to report on possible depolarization related to AMP treatment. […] Thus, without wishing to be bound by theory, a more conservative explanation of the results is that the cationic peptides increase membrane permeability to SYTOX and that the like-charge of the AMPs to the reporter of polarization may confound the interpretation of the indirect assay. For example, the AMPs may simply displace the self-quenching DiSC3(5) molecules from the membrane surface without causing depolarization.

In series [14] the test system is MRSA ATCC 33592. The experiment in a line: DiSC3(5) membrane polarization assay. In kind it is cell-based, Staphylococcus aureus. The note with it: 1.56 to 25 μg/mL. As to the method: as §2
For series [15], the system named is HeLa cells. The format is cell-based. To be noted: 24 h, alamarBlue. As to the method:
Peptide cytotoxicity. In vitro cytotoxicity was measured using the 3D EpiDerm skin tissues and HeLa Cells using a fluorescent reporter of cell viability, alamarBlue (ThermoFisher Scientific). 3D EpiDerm skin tissues (MatTek EPI-200-AFAB) were transferred to a 12 well plate containing 600 μL of AFAB-assay medium supplemented with 10% v/v alamarBlue. […] HeLa cells were seeded in a 96-well plate (2×10^4 cells/per well) and incubated overnight at 37° C. and 5% CO2 in a humidified incubator to prepare wells at ˜50% confluency of adherent cells. After the incubation, spent DMEM was removed and cells were washed with PBS. alamarBlue-containing medium was prepared by mixing Phenol Red-free DMEM with alamarBlue solution at a 9:1 ratio and a 180 μl volume was added to each well. Cells were treated with peptides varying from 3.25 to 200 μg/mL and then incubated for 24 h. The fluorescence intensities of treated cultures were normalized to values measured for an untreated control group. After the 24 h incubation period, alamarBlue fluorescence was measured at 590 nm upon excitation at 560 nm using Varioskan Lux plate reader (Thermo Scientific) plate reader.

Consider `CC[C@@H](C)[C@@H](NC(=O)[C@@H](Cc1c[nH]c2ccccc12)NC(=O)[C@@H](CCCCN)NC(=O)[C@H](NC(=O)[C@@H](CC(C)C)NC(=O)CNC(=O)CNC(=O)[C@H](NC(=O)[C@H](N)[C@H](C)O)C(C)C)C(C)C)C(=O)N[C@H](CC(C)C)C(=O)N[C@H](CCCCN)C(=O)N[C@@H](C(=O)N[C@@H](C(=O)N[C@H](CCCCN)C(=O)N[C@H](CCCCN)C(=O)N[C@H](Cc1ccccc1)C(=O)N[C@H](C)C(N)=O)C(C)C)[C@H](C)O` [D-STIP3-29, TVGGLVKWILKTVKKFA-NH2] (H-[dT][dV]GG[dL][dV][dK][dW][dI][dL][dK][dT][dV][dK][dK][dF][dA]-NH2; N-terminus assumed), for which the “MIC S. aureus ATCC 29213” value in [1] turned out to be 6.25 µg/mL (≈ 3.31 µM). Further, the “MIC S. aureus ATCC 33592 (III)” value in series [2] was determined as 6.25 µg/mL (≈ 3.31 µM). Moreover, in series [3], the “MIC S. aureus ATCC BAA 1683 (IV)” value worked out at 6.25 µg/mL (≈ 3.31 µM). In addition, the “MIC S. aureus ATCC BAA 2094 (V)” value in series [4] was 6.25 µg/mL (≈ 3.31 µM). The “MIC S. aureus ATCC BAA 2313 (XI)” value in [5] amounted to 6.25 µg/mL (≈ 3.31 µM). For the same compound, the “MIC S. aureus ATCC BAA 41 (II)” value in series [6] was found to be 6.25 µg/mL (≈ 3.31 µM). In addition, in [7], the “MIC S. aureus ATCC BAA 42 (VI)” value was 6.25 µg/mL (≈ 3.31 µM). The “MIC S. aureus ATCC BAA 44 (I)” value in series [8] was found to be 12.5 µg/mL (≈ 6.62 µM). Moreover, the “activity relative to the L-enantiomer” value in [9] is given as “just as active as the L-enantiomer”. Moreover, the “MIC C. albicans MYA-2876” value in series [10] amounted to 50 µg/mL (≈ 26.5 µM). Further, in [11], the “MIC C. albicans Y537” value was 50 µg/mL (≈ 26.5 µM). Also, the “α helicity (%)” value in [12] stood at 47%. The SYTOX fluorescence change result in [13] was “rapid and concentration dependent increase in SYTOX fluorescence”. Moreover, in series [14], the “DiSC3(5) fluorescence change” value is given as “dose-dependent increase in fluorescence”. In addition, the “IC50, HeLa cell survival” value in [15] turned out to be 39 ± 3 µg/mL (≈ 20.7 µM).
